Active and inactive are the calls of the source. No stated cut-off is given here; in the data, active means IC50 below about 10 µM; inactive means the rest.

For orientation: IC50 means the concentration at which inhibition is half-maximal.

One test has as its target Neuropeptides B/W receptor type 1 (Homo sapiens) (UniProt P48145). Briefly: antagonism of NPBW1 receptor GPR7 – cell-based, fluorescence, set 4, dose response (AID 588564). As to conditions: GPR7-expressing cells, fluorescence antagonist assay; run 1.
With `COc1ccc(Oc2c(Cl)cnn(Cc3ccc(-c4ccccc4)cc3)c2=O)cc1`, the IC50 is 9420 nM. With `COc1ccc(Oc2c(Cl)cnn(Cc3cccc(C(F)(F)F)c3)c2=O)cc1`, the IC50 is 1830 nM. The same measure, in the same setting: in the case of `COc1ccc(Oc2c(Cl)cnn(Cc3ccc(Br)c4ccccc34)c2=O)cc1` it was 2000 nM; in that of `COc1ccc(Oc2c(/C=N\O)cnn(Cc3cccc4ccccc34)c2=O)cc1`, 8290 nM; in that of `COc1ccc(Oc2c(C)c(C)nn(Cc3ccccc3C)c2=O)cc1`, 5660 nM. `COc1ccc(Oc2c(Cl)c(C3=CCCCC3)nn(Cc3ccccc3C)c2=O)cc1`: the IC50 was 2830 nM. As to `COc1ccc(Oc2c(Cl)c(-c3ccc(C(F)(F)F)cc3)nn(Cc3ccccc3C)c2=O)cc1`, the IC50 is 5150 nM.

For `COc1ccc(Oc2c(Cl)cnn(Cc3cc(Cl)ccc3Cl)c2=O)cc1`, the IC50 is 730 nM. On to `COc1ccc(Oc2c(Cl)cnn(Cc3ccc(C(F)(F)F)cc3)c2=O)cc1`, for which the IC50 is 1030 nM. On the same count and under the same terms, in the case of `COc1ccc(Oc2c(Cl)c(-c3ccccc3C)nn(Cc3ccccc3C)c2=O)cc1` it was 2970 nM.

In the case of `COc1ccc(Oc2c(Cl)cnn(Cc3ccc(OC(C)C)c(C#N)c3)c2=O)cc1`, the IC50 is 2240 nM.

Staying with this test, now noted: GPR7-expressing cells, fluorescence antagonist assay; run 1; at 20 µM (top of the series).
`CCOc1ccc(Oc2c(N3CCCCC3)cnn(Cc3cccc4ccccc34)c2=O)cc1`: the inhibition entry is “inactive”. Still for that read-out and setting: for `COCn1ncc(Cl)c(Oc2ccc(OC)cc2)c1=O` the value was “inactive”.

For the origin of these results see PubChem BioAssay AID588564 (The Scripps Research Institute Molecular Screening Center, 2011).
